Experimental data published in patent US20140065226A1, “THERMO-RESPONSIVE HYDROGEL COMPOSITIONS” (priority 2011, published 2014).
“And” between values parts separate entries of the source, which are not always exact repeats. Equal entries are not always repeated. Structures can show the parent of a compound that is named as a salt. Where two headings read alike, the source gives them in different places.

Key:
[1] = for release from pure thermo-responsive hydrogels: previous tests
Description: Drug release was carried out in PBS at 37° C. […] Drug release samples were taken at predetermined time intervals and tested for anti-proliferative activity with fibroblast MTS assay as described previously. Briefly, 3T3 fibroblast cells were seeded in 96-well plates as 5000 cells/well. After cells were grown to semiconfluence, growth was arrested by washing plates with PBS and then adding low serum medium with DMEM, 0.5% (v/v) FBS and 1% (v/v) penicillin/streptomycin mixture. Growth arrest was maintained for 24 hours. The cell cycle synchronized cells were then re-stimulated to enter G1 phase by changing back to growth medium. […] PBS was added to growth medium as control group.
To quantify the size distribution of nanospheres, the suspension was sampled and serially filtered through 0.45 μm, 0.22 μm, and 0.1 μm filters. The drug concentration after each filtration was quantified and calculated within each nanosphere size distribution. Nanospheres with size >100 nm in diameter were harvested by ultrafiltration and centrifugation. The harvested nanospheres were washed twice with DI water to remove excess PVA. The resultant nanosphere suspension was immersed in fresh PBS at 37° C. to initiate release. […] The release samples were taken continuously for 1 day. All samples were quantified for 3H concentration using a scintillation counter. Each experiment was conducted in triplicate.
The samples were taken continuously for the first 24 hours. The drug concentration was measured spectrophotometrically at 240 nm.

[2] = oil: methylene chloride + methanol

release from free nanospheres ([1]; PBS, 37° C.)	release from nanospheres loaded hydrogels ([1]; PBS, 37° C.)	release from pure thermo-responsive hydrogels ([1]; after the first two hours)	drug release from PLGA nanospheres ([1]; within 24 hours, 37° C., PBS, disodium salt)	release from pure thermo-responsive hydrogels ([1]; within the first two hours) [%]	P (oil/water) ([2]; water: 0.2% PVA)	P (oil/water) ([2]; water: 2% PVA)	P (oil/water) ([2]; water: 2% PVA + 0.25N (NH4)2SO4)	P (oil/water) ([2]; water: 2% PVA + 0.5N NaCl)	Structure (SMILES)
sustained release over 24 hours	sustained release over 24 hours	less than 10%	> 90% and ~90%	~90	0.06	0.15	0.86	0.26	C[C@@H]1C[C@H]2[C@@H]3CCC4=CC(=O)C=C[C@]4(C)[C@@]3(F)[C@@H](O)C[C@]2(C)[C@@]1(O)C(=O)COP(=O)(O)O [Dexamethasone sodium phosphate, Dexamethasone 21-phosphate disodium salt]
–	–	–	–	–	2.93	–	–	–	[3H]C1=C([3H])[C@@]2(C)C(=C([3H])C1=O)CC[C@H]1[C@@H]3C[C@@H](C)[C@](O)(C(=O)CO)[C@@]3(C)C[C@H](O)[C@@]12F [[1,2,4-^3H]dexamethasone, [1,2,4-^3H]dexamethasone]
